This is an account of results in ChEMBL document CHEMBL1148436, “Structural determinants for high 5-HT(2A) receptor affinity of spiro[9,10-dihydroanthracene]-9,3(')-pyrrolidine (SpAMDA)” (Bioorg Med Chem Lett, 2004).

Assay [1] addresses 5-hydroxytryptamine receptor 2A (Homo sapiens, UniProt P28223). Briefly: Binding affinity towards 5-hydroxytryptamine 2A receptor using [3H]ketanserin.
In assay [2] the target is T1, 5-hydroxytryptamine receptor 2C (Homo sapiens, UniProt P28335).
T1 sequence (P28335 whole entry): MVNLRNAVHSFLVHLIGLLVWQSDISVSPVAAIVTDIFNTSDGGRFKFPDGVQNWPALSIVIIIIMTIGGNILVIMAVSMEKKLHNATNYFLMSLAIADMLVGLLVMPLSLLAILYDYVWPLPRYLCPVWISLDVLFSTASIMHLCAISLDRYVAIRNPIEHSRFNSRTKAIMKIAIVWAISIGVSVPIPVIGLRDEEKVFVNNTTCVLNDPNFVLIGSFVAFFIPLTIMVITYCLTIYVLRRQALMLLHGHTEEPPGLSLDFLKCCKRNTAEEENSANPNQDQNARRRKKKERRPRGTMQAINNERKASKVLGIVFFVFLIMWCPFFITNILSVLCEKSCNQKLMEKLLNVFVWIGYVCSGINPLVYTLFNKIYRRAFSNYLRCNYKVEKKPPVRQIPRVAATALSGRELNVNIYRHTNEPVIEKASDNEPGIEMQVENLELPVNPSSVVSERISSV
Briefly: Binding affinity towards 5-hydroxytryptamine 2C receptor using [3H]mesulergine as radioligand.

For assay [3], the target named is Sodium-dependent noradrenaline transporter (Homo sapiens, UniProt P23975). Kind of assay: Binding affinity towards Norepinephrine transporter using [3H]nisoxitine as radioligand.
The target in assay [4] is Sodium-dependent serotonin transporter (Homo sapiens, UniProt P31645). Briefly: Binding affinity towards Serotonin transporter using [3H]paroxetine as radioligand.

SMILES strings stand for the structures.

In the case of `c1ccc2c(c1)CCc1ccccc1C21CCNC1`, the Ki in assay [1] is 110 nM.

`CN1CCC(=C2c3ccccc3C=Cc3ccccc32)CC1` [CYPROHEPTADINE] gave an inhibition constant (Ki) in assay [2] of 11 nM.

`c1ccc2c(c1)Cc1ccccc1C21CCCNC1`: in assay [1], the Ki turned out to be 99 nM.

Consider `CN(C)CCCN1c2ccccc2CCc2ccccc21` [IMIPRAMINE], for which the inhibitory constant (Ki) in assay [2] was 160 nM.

`c1ccc2c(c1)Cc1ccccc1C21CCNC1`: the inhibition constant Ki was determined as 10 µM in assay [3] and 3.9 µM in assay [4].

Regarding `c1ccc(C2(c3ccccc3)CCNC2)cc1`, affinity in assay [1] was put at a Ki of 4610 nM.

As to `c1ccc2c(c1)CCCC21CCNC1` (stereo not drawn), the Ki in assay [1] is above 10000 nM.
